Test results: US10800816B2 (Baxalta GmbH, priority 2012, dated 2020)
Values after ≈ are worked out from the molar mass of the structure shown.

Assays:
[1] = Pharmacokinetics in C57Bl6 mice; type: in vivo, mouse
TFPI = experiment: FXa inhibition assay (human TFPI); details: read-out: FXa Inhibition Assay EC50; Table 7 and text b402
human TFPI-1 = target: T1, human TFPI-1 (Homo sapiens, UniProt P10646); experiment: BIAcore surface plasmon resonance, immobilized human TFPI-1; type: binding; details: Table 6
T1 construct: human TFPI-1 (residues 29-282 fused at the C-terminus to a 10 His-tag); purchased R&D Systems 2974-PI
T1 sequence (P10646 29-282): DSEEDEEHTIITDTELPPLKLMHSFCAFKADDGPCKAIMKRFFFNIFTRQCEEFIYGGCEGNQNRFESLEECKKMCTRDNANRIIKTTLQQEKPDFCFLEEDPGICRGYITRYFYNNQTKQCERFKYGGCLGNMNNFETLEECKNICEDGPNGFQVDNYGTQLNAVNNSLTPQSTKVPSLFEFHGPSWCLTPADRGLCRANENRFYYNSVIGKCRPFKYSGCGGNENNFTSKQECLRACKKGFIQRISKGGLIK

fl-TFPI / ASGPR = target: T2, fl-TFPI / ASGPR (Homo sapiens, UniProt P10646); experiment: BIAcore: fl-TFPI binding to ASGPR in presence of peptide; details: 1 μM peptide
T2 sequence (P10646 29-304): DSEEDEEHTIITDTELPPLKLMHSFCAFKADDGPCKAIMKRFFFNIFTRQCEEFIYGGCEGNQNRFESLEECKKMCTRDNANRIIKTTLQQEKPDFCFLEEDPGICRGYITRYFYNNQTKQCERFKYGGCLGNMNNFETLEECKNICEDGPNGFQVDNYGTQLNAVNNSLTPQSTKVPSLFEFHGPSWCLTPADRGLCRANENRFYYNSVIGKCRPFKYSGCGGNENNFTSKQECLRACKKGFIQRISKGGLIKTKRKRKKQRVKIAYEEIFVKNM

FIX knock-out mice = experiment: Tail-tip bleed model in FIX knock-out mice; type: in vivo, mouse; details: 1 mg/kg JBT2329 alone
Experimental: JBT2329 also was tested in a FIX knock-out tail-tip bleed mouse model, which is a clinically-relevant model for hemophilia B human patients. The methodology was substantially similar to that described above with respect to the FVIII knock-out model. Instead of ADVATE, a recombinant FIX (rFIX) served as a reference. Median total blood loss in buffer-treated animals was 935 mg. Median total blood loss in animals treated with a murine anti-TFPI antibody (maTFPI) was 774 mg. Median total blood loss was reduced further when the animals received combined treatment of maTFPI and rFIX.

[2] = mouse, 24 h
[3] = system: FVIII-inhibited whole blood; experiment: Rotation thromboelastography (ROTEM) in whole blood; set-up: species or system human; details: Hem A / FVIII-inhibited human whole blood
Experimental: Continuous visco-elastic assessment of human whole blood clot formation and firmness was performed by rotation thromboelastography with whole blood preparations in the presence or absence of peptides. […] Test samples were prepared by dissolving quantities of peptides in either DMSO or HEPES buffered saline (with or without 0.1% Tween 80).
Recordings were made using a ROTEM thromboelastography coagulation analyzer (Pentapharm, Munich, Germany) at 37° C. Briefly, blood is added into a disposable cuvette in a heated cuvette holder. A disposable pin (sensor) is fixed on the tip of a rotating axis. The axis is guided by a high precision ball bearing system and rotates back and forth. The axis is connected with a spring for the measurement of elasticity. The exact position of the axis is detected by the reflection of light on a small mirror on the axis. The loss of elasticity when the sample clots leads to a change in the rotation of the axis. The data obtained are computer analyzed and visualized in a thromboelastogram. […] An elasticity of approximately zero is observed before clot formation begins. Mirror image traces above and below the zero line indicate the effect of clot formation on the rotation of the axis.
The analytical set-up was as follows: to 20 μL of test sample or control, 300 μL of pre-warmed (37° C.) CTI treated citrated whole blood was added, followed by 20 μL of a 1:15 dilution of TF PRP reagent containing recombinant human tissue factor (rTF, 3 pM) (TS40, Thrombinoscope BV, Maastricht, The Netherlands). Coagulation was initiated by the addition of 20 μ200 mM CaCl2 (star-TEM®, Pentapharm, Munich, Germany) and recordings were allowed to proceed for at least 120 min. The final concentration of rTF in the assay was 11 or 44 fM.
The thromboelastographic parameters of clotting time (CT), clot formation time (CFT) and maximum clot firmness (MCF) were recorded in accordance with the manufacturer's instructions. CT is defined as the time from the start of measurement to the start of clot formation. CFT is defined as the time from the start of clot formation until an amplitude of 20 mm is reached. MCF is the maximum difference in amplitude between the two traces during the assay. The first derivative of the data of the thromboelastogram are plotted to obtain a graph of velocity (mm/s) against time (s). From this graph, the maximum velocity (maxV) is determined. The time at which the maximum velocity is obtained (maxV-t) is also determined.
This example describes a method for assessing clot formation in whole blood using rotation thromboelastography (ROTEM). The assay was performed as described in Example 8. The analytical set-up was as follows: 300 μL of pre-warmed (37° C.) CTI treated citrated whole blood was added to a peptide sample (10, 100, 1000 nM final assay concentration) or a control, followed by addition of a 1:15 dilution of TF PRP reagent containing recombinant human tissue factor (rTF, 3 pM) (TS40, Thrombinoscope BV, Maastricht, The Netherlands). In certain experiments, exogenous full length TFPI (flTFPI) at final concentrations of 2 or 10 nM was added to simulate flTFPI plasma levels of up to 50-fold over normal. Coagulation was initiated by the addition of 20 μL 200 mM CaCl2 (star-TEM®, Pentapharm, Munich, Germany) and recordings were allowed to proceed for at least 120 min. The final concentration of rTF in the assay was 44 fM. The thromboelastographic parameters of clotting time (CT), clot formation time (CFT) and maximum clot firmness (MCF) were recorded in accordance with the manufacturer's instructions. CT is defined as the time from the start of measurement to the start of clot formation. CFT is defined as the time from the start of clot formation until an amplitude of 20 mm is reached. MCF is the maximum difference in amplitude between the two traces during the assay.

fl-TFPI / LRP = target: T3, fl-TFPI / LRP (Homo sapiens, UniProt P10646); experiment: BIAcore: fl-TFPI binding to LRP in presence of peptide; details: 1 μM peptide, 10 nM fl-TFPI
T3 sequence (P10646 29-304): T2 sequence (P10646 29-304)
T3 sequence (Q07954 852-1182 partner limits assumed): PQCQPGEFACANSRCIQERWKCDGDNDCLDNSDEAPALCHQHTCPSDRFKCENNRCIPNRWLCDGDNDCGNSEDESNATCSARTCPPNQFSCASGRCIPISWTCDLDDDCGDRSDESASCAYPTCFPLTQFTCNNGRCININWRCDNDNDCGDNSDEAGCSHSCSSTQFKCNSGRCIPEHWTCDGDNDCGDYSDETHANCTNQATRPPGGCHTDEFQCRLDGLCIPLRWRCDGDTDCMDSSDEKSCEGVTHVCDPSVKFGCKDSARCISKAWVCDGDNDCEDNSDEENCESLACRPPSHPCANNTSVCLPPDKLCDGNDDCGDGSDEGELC

FVIII knock-out mice = details: 1 mg/kg without ADVATE
[4] = 24 h
C57Bl/6NCrl mice = experiment: Nail clip bleeding study in mice; type: in vivo, mouse
FVIII-deficient mice = experiment: Puncture-induced hemarthrosis in FVIII-deficient mice; type: in vivo, mouse; details: 1 mg/kg i.v.
Experimental: After each product administration, the right knee joint capsule was punctured with a 30 gauge needle to induce hemorrhage. Animals were sacrificed three days following injury, and bleeding was assessed via gross and histological methods. […] Summary bleeding scores (SBS), which include visual and histological bleeding scores, were assigned to each joint. […] The results described herein further confirm that peptides of the invention provide a prophylactic or protective effect against bleeding in an in vivo model of hemophilia A.

[5] = 0.1 mg/kg i.v., first 30 minutes
[6] = 0.1 mg/kg i.v., second 30 minute period

Question: For `CC(=O)N[C@@H](Cc1ccccc1)C(=O)N[C@@H](CCC(N)=O)C(=O)N[C@@H](CO)C(=O)N[C@@H](CCCCN)C(=O)NCC(=O)N[C@@H](CC(N)=O)C(=O)N[C@H](C(=O)N[C@@H](Cc1ccccc1)C(=O)N[C@H](C(=O)N[C@@H](CC(=O)O)C(=O)NCC(=O)N[C@@H](Cc1ccc(O)cc1)C(=O)N[C@@H](Cc1ccccc1)C(=O)N[C@@H](CCC(=O)O)C(=O)N[C@@H](CCCNC(=N)N)C(=O)N[C@@H](CC(C)C)C(=O)NC(C)(C)C(=O)N[C@@H](C)C(=O)N[C@@H](CCCCN)C(=O)N[C@@H](CC(C)C)C(N)=O)C(C)C)C(C)C` [JBT0740], which “plasma concentration after intravenous administration” value ([1]; 10 mg/kg i.v., FIG. 31) is on record?
Answer: rapidly cleared from the plasma

Question: What about the solubility (physchem) of the same compound?
Answer: 920 µg/mL (≈ 392 µM)

Question: What does the source list for Ac-FQSKNNVFVFGYFERLRAKL-NH2 [JBT0297]?
Answer: EC50 (TFPI): 600 nM; Kd (human TFPI-1): 29 nM

Question: Which “fl-TFPI interaction with ASGPR in presence of peptide” value (fl-TFPI / ASGPR) does the source give for “Ac-FQSKpNVHVDGYFERL-Aib-AKLC(PEG)-NH2 [JBT2329] (FQSKPNVHVDGYFERLXAKLC; acetyl, D-Pro, Aib, Cys-PEG 41.5 kD, amide; MOD_RES (1)..(1): N-terminal acetylation; MOD_RES (5)..(5): D-Pro; MOD_RES (17)..(17): Xaa is 2-amino-isobutyric acid; MOD_RES (21)..(21): Cys-PEG; MOD_RES (21)..(21): C-terminal amidation)” here?
Answer: diminished the ASGPR-fl-TFPI interaction

Question: What about the “HL_λ_z [h] (intravenous)” value ([1]; 1 mg/kg peptide content, intravenous) of the same compound?
Answer: 19.8 h

Question: What about the “Bioavailability [%] (s.c.)” value ([1]; 1 mg/kg peptide content, s.c. AUC vs i.v. AUC) of the same compound?
Answer: 73.3%

Question: And the “effect on median total blood loss” value (FIX knock-out mice)?
Answer: did not lead to a significant reduction in median total blood loss

Question: And the “percentage of initial amount of peptide remaining in plasma” value [2]?
Answer: ≥ 60%

Question: What about the coagulation parameters [3] of the same compound?
Answer: restored prolonged coagulation parameters in Hem A blood

Question: What about the “fl-TFPI interaction with LRP in presence of peptide” value (fl-TFPI / LRP) of the same compound?
Answer: slight decrease in fl-TFPI LRP interaction

Question: And the “effect on median total blood loss” value (FVIII knock-out mice)?
Answer: did not reduce median total blood loss over that observed in buffer-treated animals

Question: What about the “Human Plasma Stability, 24 hour (%)” value [4] of the same compound?
Answer: 67.3%

Question: And the “reduction of total blood loss compared to vehicle” value (C57Bl/6NCrl mice; 0.1 mg/kg i.v., 60 minutes)?
Answer: ~60%

Question: What about the mean blood loss (C57Bl/6NCrl mice; 0.1 mg/kg i.v., 60 minutes total) of the same compound?
Answer: 34.7 µL

Question: What about the mean blood loss (C57Bl/6NCrl mice; [5]) of the same compound?
Answer: 16.0 µL

Question: And the “reduction of blood loss compared to vehicle” value (shortened to “reduction of blood loss”) (C57Bl/6NCrl mice; [5])?
Answer: about 50%

Question: And the mean blood loss (C57Bl/6NCrl mice; [6])?
Answer: 18.7 µL

Question: What about the “reduction of blood loss” value (C57Bl/6NCrl mice; [6]) of the same compound?
Answer: about 64%

Question: And the mean blood loss (C57Bl/6NCrl mice; 1.0 mg/kg i.v., entire 60 minutes)?
Answer: 22.8 µL

Question: What about the mean blood loss (C57Bl/6NCrl mice; 1.0 mg/kg i.v., first 30 minutes) of the same compound?
Answer: 12.2 µL

Question: And the mean blood loss (C57Bl/6NCrl mice; 1.0 mg/kg i.v., second 30 minute period)?
Answer: 10.6 µL

Question: What about the “reduction of blood loss” value (C57Bl/6NCrl mice; 10 mg/kg subcutaneous, 60 minutes) of the same compound?
Answer: approximately 58%

Question: And the “protective effect on joint bleeding (summary bleeding score)” value (FVIII-deficient mice)?
Answer: significantly greater than the effect of 10 IU/kg ADVATE, but less than 100 IU/kg ADVATE
